Source: patent EP4700036A1, “GLYCOLIPID DERIVATIVE AS MINCLE LIGAND” (The University of Osaka, priority 2023, dated 2024)

Biological target: T1, bovine Mincle (Bos taurus, UniProt E1BHM0)
T1 construct: expressed in transfected cells
T1 sequence (E1BHM0 1-211): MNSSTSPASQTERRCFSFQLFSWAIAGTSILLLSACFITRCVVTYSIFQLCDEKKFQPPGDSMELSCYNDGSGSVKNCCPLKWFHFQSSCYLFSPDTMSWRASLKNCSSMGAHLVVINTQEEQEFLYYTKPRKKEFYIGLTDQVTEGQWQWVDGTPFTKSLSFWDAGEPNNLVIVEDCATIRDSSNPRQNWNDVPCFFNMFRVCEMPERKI
Test: Mincle ligand activity, NFAT-GFP reporter cells expressing bovine Mincle
Type: cell-based
Settings: 96-well plate, 0.03 to 3 nmol; Fig. 1 (right)
Description: Similarly, using NFAT-GFP reporter cells expressing bovine Mincle, prepared according to the method described in a literature (Yamasaki, S. et al, Nat Immunol 9, 1179-88(2008)), the ligand activity of HD-276 was evaluated on a 96-well plate. The doses of the test compounds (horizontal axis) were 0.03 to 3 (nmol) from the left to right.

Question: How did the “Mincle ligand activity (reporter activity)” value turn out when CCCCCCc1ccc(O[C@@H]2O[C@@H](C)[C@H](O)[C@@H](OC)[C@H]2O[C@@H]2O[C@@H](C)[C@H](O[C@@H]3O[C@H](COC)[C@@H](O)[C@H](O)[C@H]3O)[C@@H](OC)[C@H]2OC)cc1 [HD-276] was run?
Answer: The value was “confirmed to have Mincle ligand activity”.
